By IC50 is commonly meant the concentration at which inhibition is half-maximal.

Consider 48 compounds from ChEMBL document CHEMBL4400552, “Design, synthesis and biological evaluation of novel human monoamine oxidase B inhibitors based on a fragment in an X-ray crystal structure” (Bioorg Med Chem Lett, 2019).

Structures are written as SMILES.

The target of data set [1] is T1, Amine oxidase [flavin-containing] B (Homo sapiens, UniProt P27338).
T1 sequence (P27338 whole entry): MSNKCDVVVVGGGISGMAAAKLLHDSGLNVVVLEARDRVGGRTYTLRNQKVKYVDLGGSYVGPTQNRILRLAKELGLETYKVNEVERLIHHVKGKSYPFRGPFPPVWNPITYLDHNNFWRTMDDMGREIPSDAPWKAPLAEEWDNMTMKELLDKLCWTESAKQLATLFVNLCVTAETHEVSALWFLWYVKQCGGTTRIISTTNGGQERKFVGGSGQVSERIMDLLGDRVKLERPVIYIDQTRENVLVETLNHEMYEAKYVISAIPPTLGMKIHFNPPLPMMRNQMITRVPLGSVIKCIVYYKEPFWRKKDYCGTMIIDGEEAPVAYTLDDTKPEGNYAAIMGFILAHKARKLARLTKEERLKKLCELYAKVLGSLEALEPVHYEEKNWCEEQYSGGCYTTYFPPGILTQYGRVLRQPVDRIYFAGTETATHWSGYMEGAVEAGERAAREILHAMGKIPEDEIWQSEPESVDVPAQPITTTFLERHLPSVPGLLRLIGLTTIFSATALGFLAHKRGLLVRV
Briefly: Inhibition of human recombinant MAO-B expressed in insect cells at 1 uM using p-tyramine as substrate preincubated for 30 mins followed by substrate addition measured for 15 mins by resorufin dye-based fluorescence assay relative to control. The conditions noted are these: 0.25 h; for inhibition at 1 µM: read-out: INH; for INH: 1 µM.

The target of data set [2] is T1, Amine oxidase [flavin-containing] B. Briefly: Inhibition of human recombinant MAO-B expressed in insect cells using p-tyramine as substrate preincubated for 30 mins followed by substrate addition measured for 15 mins by resorufin dye-based fluorescence assay. Type of data set: cell-based.
Data set [3] concerns the target T2, Amine oxidase [flavin-containing] A (Homo sapiens, UniProt P21397).
T2 sequence (P21397 whole entry): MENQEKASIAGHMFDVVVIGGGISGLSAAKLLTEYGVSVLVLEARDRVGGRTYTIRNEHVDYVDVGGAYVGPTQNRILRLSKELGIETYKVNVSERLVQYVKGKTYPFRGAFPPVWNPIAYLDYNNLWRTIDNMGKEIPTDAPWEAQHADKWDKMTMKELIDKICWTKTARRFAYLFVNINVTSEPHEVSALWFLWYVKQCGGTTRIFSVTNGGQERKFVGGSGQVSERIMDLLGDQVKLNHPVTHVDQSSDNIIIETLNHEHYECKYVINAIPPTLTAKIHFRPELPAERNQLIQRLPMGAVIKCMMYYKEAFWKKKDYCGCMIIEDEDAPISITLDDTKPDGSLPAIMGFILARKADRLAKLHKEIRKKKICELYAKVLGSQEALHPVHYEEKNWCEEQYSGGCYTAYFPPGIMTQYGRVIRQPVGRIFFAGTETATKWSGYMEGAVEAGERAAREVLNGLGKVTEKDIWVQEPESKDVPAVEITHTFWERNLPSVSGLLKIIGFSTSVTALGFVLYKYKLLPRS
Put plainly: Inhibition of human recombinant MAO-A expressed in insect cells using p-tyramine as substrate preincubated for 30 mins followed by substrate addition measured for 15 mins by resorufin dye-based fluorescence assay.

Data set [4] is filed under the species Homo sapiens. Briefly: Selectivity index, ratio of IC50 for human recombinant MAO-A expressed in insect cells to IC50 for human recombinant MAO-B expressed in insect cells.

In the case of `Cn1c(=O)[nH]c2cc(OCc3cccc(Cl)c3)ccc21`, in data set [1], the inhibition at 1 µM is 23.4%. For the same compound, the IC50 was 34.3 µM in data set [2] and over 500 µM in data set [3]. In addition, in data set [4], the Ratio IC50 is over 14.6.
For the compound `Cc1ccc(COc2ccc3c(c2)C(C(C)C)C(=O)N3)cc1` (configuration not stated), in data set [1], the INH entry is listed as “Not Active”.
On to `CC1(C)C(=O)Nc2ccc(OCc3ccc(Cl)c(Cl)c3)cc21`, for which the inhibition at 1 µM in data set [1] was determined as 28.8%. The IC50 was 132 µM in data set [2] and over 500 µM in data set [3]. Besides, the Ratio IC50 in data set [4] was over 3.78.
`Cn1c(=O)[nH]c2cc(OCCCc3ccccc3)ccc21`: in data set [1], the INH result is listed as “Not Active”.
On to `CC(C)C1C(=O)Nc2ccc(OCc3cccc(F)c3)cc21` (configuration not stated), for which the inhibition at 1 µM in data set [1] was determined as 12.7%. The IC50 in data set [2] is 397 µM; in data set [3], over 500 µM. Further, the Ratio IC50 in data set [4] is over 1.62.
For `O=C1Nc2ccc(OCc3cccc(Cl)c3)cc2C1=O` the same measures were 93%, 0.046 µM, 311 µM and 6760.
As to `COc1ccc(OCCOc2ccc3[nH]c(=O)n(C(C)C)c3c2)cc1`, in data set [1], the inhibition at 1 µM is 15.5%.
`CCn1c(=O)[nH]c2ccc(OCCOc3cccc(F)c3)cc21`: the inhibition at 1 µM in data set [1] was 30.3%. In addition, the IC50 in data set [2] was 190 µM; in data set [3] it was over 500 µM. For the same compound, the Ratio IC50 in data set [4] was over 2.62.
For `O=C1Cc2cc(OCCc3ccc(F)cc3)ccc2N1` the same measures were 18.1%, 190 µM, over 500 µM and over 2.63.
Turning to `CC(C)=C1C(=O)Nc2ccc(OCCOc3ccccc3)cc21`, the INH entry in data set [1] is “Not Active”.
The same measure, in the same setting: for `CC1(C)C(=O)Nc2ccc(OCCc3ccccc3)cc21` the value was “Not Active”.
In the case of `Cn1c(=O)[nH]c2ccc(OCCOc3ccc(Cl)cc3)cc21`, the inhibition at 1 µM in data set [1] turned out to be 9.94%.
Still for that read-out and setting: for `Cn1c(=O)[nH]c2ccc(OCCc3ccc(Cl)cc3)cc21` the value was 19.9%.
`CC1(C)C(=O)Nc2ccc(OCc3cccc(Cl)c3)cc21`: the inhibition at 1 µM in data set [1] turned out to be 21.1%. Besides, the IC50 in data set [2] is 279 µM; in data set [3], over 500 µM. The Ratio IC50 in data set [4] is over 1.79.
As for `Cc1ccc(COc2ccc3c(c2)C(C)C(=O)N3)cc1` (racemic), in data set [1], the INH entry is listed as “Not Active”.
Take `CC(C)=C1C(=O)Nc2ccc(OCCc3ccccc3)cc21`: the INH entry in data set [1] was “Not Active”.
Consider `Cn1c(=O)[nH]c2cc(OCc3ccccc3)ccc21`, for which the INH result in data set [1] is recorded as “Not Active”.
On the same count and under the same terms, for `Cn1c(=O)[nH]c2cc(OCCc3ccccc3)ccc21` the value was “Not Active”.
In the case of `CC(C)c1ccc(OCCOc2ccc3[nH]c(=O)n(C(C)C)c3c2)cc1`, the inhibition at 1 µM in data set [1] worked out at 14.1%. Further, the values for the IC50 in data set [2] and in data set [3] were 66.7 µM and over 500 µM, respectively. Moreover, in data set [4], the Ratio IC50 is over 7.49.
For the compound `CCn1c(=O)[nH]c2ccc(OCCOc3ccc(OC)cc3)cc21`, in data set [1], the inhibition at 1 µM worked out at 13.9%.
`CC(C)=C1C(=O)Nc2ccc(OCc3cccc(F)c3)cc21`: the INH result in data set [1] was “Not Active”.
As to `Cn1c(=O)[nH]c2ccc(OCCCc3ccccc3)cc21`, in data set [1], the inhibition at 1 µM is 14%. Moreover, the figures for the IC50 in data set [2] and in data set [3] were 59.6 µM and over 500 µM, respectively. Also, the Ratio IC50 in data set [4] was over 8.39.
For `O=C1Nc2ccc(OCc3ccc(F)cc3)cc2C1=O` the same measures were 92.5%, 0.073 µM, 235 µM and 3210.
For `O=C1Cc2cc(OCc3ccc(F)cc3)ccc2N1` the same measures were 19.6%, 24.9 µM, over 500 µM and over 20.1.
For the compound `CC(C)n1c(=O)[nH]c2ccc(OCCOc3cccc(F)c3)cc21`, in data set [1], the inhibition at 1 µM came out at 12.9%.
As for `O=C1Nc2ccc(OCCc3ccc(F)cc3)cc2C1=O`, the inhibition at 1 µM in data set [1] was 68.7%. Also, the IC50 was 0.102 µM in data set [2] and over 500 µM in data set [3]. In addition, the Ratio IC50 in data set [4] was over 4900.
On to `Cn1c(=O)[nH]c2ccc(OCc3ccccc3)cc21`, for which the INH result in data set [1] is listed as “Not Active”.
As to `O=C1Cc2cc(OCc3ccc(Cl)c(Cl)c3)ccc2N1`, the inhibition at 1 µM in data set [1] came to 12.4%. Further, the IC50 in data set [2] was 17.2 µM; in data set [3], over 500 µM. Also, the Ratio IC50 in data set [4] is over 29.1.
For `O=C1Nc2ccc(OCc3ccc(Cl)c(Cl)c3)cc2C1=O` the same measures were 95.7%, 0.003 µM, 117 µM and 38900.
For the compound `CCn1c(=O)[nH]c2ccc(OCc3cccc(C(F)(F)F)c3)cc21`, the inhibition at 1 µM in data set [1] turned out to be 12.5%.
Still for that read-out and setting: the same measure for `CCn1c(=O)[nH]c2ccc(OCCCOc3ccccc3)cc21`: 11.3%; for `CCn1c(=O)[nH]c2ccc(OCCCc3ccccc3)cc21`: 4.56%.
Consider `Cn1c(=O)[nH]c2ccc(OCc3ccc(Cl)cc3)cc21`, for which the inhibition at 1 µM in data set [1] is 8.29%. For the same compound, the values for the IC50 in data set [2] and in data set [3] were 56.4 µM and over 500 µM, respectively. For the same compound, the Ratio IC50 in data set [4] was over 8.87.
In the case of `CC1(C)C(=O)Nc2ccc(OCCOc3ccccc3)cc21`, the INH entry in data set [1] is recorded as “Not Active”.
Same read-out and setting: for `Cc1ccc(COc2ccc3c(c2)C(C)(C)C(=O)N3)cc1` the value was “Not Active”.
For `Cn1c(=O)[nH]c2ccc(OCc3ccc(Cl)c(Cl)c3)cc21`, the inhibition at 1 µM in data set [1] is 32.4%. In addition, the IC50 in data set [2] was 7.68 µM; in data set [3], over 500 µM. Moreover, the Ratio IC50 in data set [4] was over 65.
Consider `Cn1c(=O)[nH]c2ccc(OCCc3cccc(Cl)c3)cc21`, for which the inhibition at 1 µM in data set [1] turned out to be 13.7%.
For the compound `CC(C)=C1C(=O)Nc2ccc(OCc3cccc(C)c3)cc21`, in data set [1], the INH entry was “Not Active”.
Same read-out and setting: for `Cn1c(=O)[nH]c2ccc(OCCc3ccccc3)cc21` the value was “Not Active”.
Regarding `Cn1c(=O)[nH]c2ccc(OCc3cccc(F)c3)cc21`, the inhibition at 1 µM in data set [1] was determined as 5.36%.
On to `CC(C)=C1C(=O)Nc2ccc(OCc3ccc(F)cc3)cc21`, for which the INH entry in data set [1] is “Not Active”.
The same measure, in the same setting: for `COc1ccc(OCCOc2ccc3c(c2)C(=C(C)C)C(=O)N3)cc1` the value was “Not Active”.
For `CCn1c(=O)[nH]c2ccc(OCCOc3ccc(Cl)cc3)cc21`, in data set [1], the inhibition at 1 µM came to 7.24%.
As to `CC1(C)C(=O)Nc2ccc(OCc3ccc(F)cc3)cc21`, in data set [1], the INH result is recorded as “Not Active”.
In the case of `Cn1c(=O)[nH]c2ccc(OCc3cccc(Cl)c3)cc21`, in data set [1], the inhibition at 1 µM was found to be 8.89%.
For `CCn1c(=O)[nH]c2ccc(OCc3ccc(C(F)(F)F)cc3)cc21`, in data set [1], the inhibition at 1 µM came out at 22.8%. Moreover, the figures for the IC50 in data set [2] and in data set [3] were 184 µM and over 500 µM, respectively. In data set [4], the Ratio IC50 was over 2.71.
For `CC(C)n1c(=O)[nH]c2ccc(OCCOc3ccc(Cl)cc3)cc21`, the inhibition at 1 µM in data set [1] is 18.2%.
On to `CCn1c(=O)[nH]c2ccc(OCCOc3ccc(C(C)C)cc3)cc21`, for which the inhibition at 1 µM in data set [1] was 19%. The half-maximal inhibitory concentration (IC50) in data set [2] was 278 µM; in data set [3], over 500 µM. Further, the Ratio IC50 in data set [4] was over 1.8.
